Measurements taken from paper PMC6429183, “Identification of Compounds That Inhibit Estrogen-Related Receptor Alpha Signaling Using High-Throughput Screening Assays” (Molecules, 2019).
Values joined by “and” are separate entries in the source; they are usually repeats but may differ in a detail not shown here. Equal values may be shown once.

Experiments:
[1] = tested on: ERR reporter HEK293 cells; assay: CellTiter-Fluor cell viability assay multiplexed with ERR reporter assay; format: cell-based; conditions: for ERR-HEK293 Follow-Up Viability EC50: follow-up screen; for ERR-HEK293 Primary Viability EC50: primary qHTS, viability counter screen
Description: (§1) ERR or PGC/ERR reporter HEK293 cells suspended in culture medium without puromycin were dispensed at 2500 cells/5 μL/well in tissue culture–treated 1536-well white assay plates (Greiner Bio-One North America, Monroe, NC, USA) using a Thermo Scientific Multidrop Combi (ThermoFisher Scientific, Inc.). […] After the cells were incubated at 37 °C with 5% CO2 for 6 h, 23 nL of compounds or control, XTC790, was transferred into the assay plates using a Wako Pintool station (Wako Automation, San Diego, CA, USA). The assay plates were incubated at 37 °C for 18 h, followed by the addition of 5 μL ONE-Glo luciferase reagent (Promega, Madison, WI, USA) using a Flying Reagent Dispenser (Aurora Discovery, Carlsbad, CA, USA). After 30 min of incubation at room temperature, the luminescence intensity of the assay plates was quantified using a ViewLux plate reader (PerkinElmer, Shelton, CT, USA). The assays were performed three times for each compound concentration. These ERR and PGC/ERR reporter assays were multiplexed with the CellTiter-Fluor Cell Viability Assay (Promega), a fluorescence-based cell viability assay, to assess compound cytotoxicity.
The qHTS data were analyzed as described previously. […] The DMSO-only compound plates at the beginning and end of the compound plate stack were used to correct the data set by applying an in-house pattern correction algorithm. The half maximum inhibition values (IC50) for each compound and maximum response (efficacy) values were obtained by fitting the concentration-response curves of each compound to a four-parameter Hill equation [91]. […] For each reading, the activity outcome of a test compound was first categorized by the average curve rank from the triplicate runs and the reproducibility calls. The final activity outcome of each compound was based on the ERR antagonist readout activity and cell viability counter screen.

[2] = tested on: PGC/ERR reporter HEK293 cells; assay: CellTiter-Fluor cell viability assay multiplexed with PGC/ERR reporter assay; format: cell-based; conditions: for PGC/ERR-HEK293 Follow-Up Viability EC50: follow-up screen; for PGC/ERR-HEK293 Primary Viability EC50: primary qHTS
Description: as §1
The qHTS data were analyzed as described previously. Each titration point was normalized relative to the positive control compound (XCT790 = −100%) and DMSO-only wells (0%) according to the following equation: % Activity = [(Vcompound − VDMSO)/(VDMSO − Vpos)] × 100, where Vcompound denotes the compound well values, Vpos denotes the median value of the positive control wells, and VDMSO denotes the median values of the DMSO-only wells. The DMSO-only compound plates at the beginning and end of the compound plate stack were used to correct the data set by applying an in-house pattern correction algorithm. The half maximum inhibition values (IC50) for each compound and maximum response (efficacy) values were obtained by fitting the concentration-response curves of each compound to a four-parameter Hill equation [91]. Compounds were designated as Class 1–4 according to the type of concentration–response curve observed. For each reading, the activity outcome of a test compound was first categorized by the average curve rank from the triplicate runs and the reproducibility calls. The final activity outcome of each compound was based on the ERR antagonist readout activity and cell viability counter screen.

[3] = biological target: T1, ERRα with PGC-1α (PGC/ERR pathway) (Homo sapiens, UniProt P11474); assay: PGC/ERR reporter (luciferase) qHTS assay, PGC/ERR-HEK293; conditions: for PGC/ERR-HEK293 Follow-Up Efficacy / PGC/ERR-HEK293 Primary Efficacy: negative = antagonism, positive = agonism
T1 sequence (P11474 1-423): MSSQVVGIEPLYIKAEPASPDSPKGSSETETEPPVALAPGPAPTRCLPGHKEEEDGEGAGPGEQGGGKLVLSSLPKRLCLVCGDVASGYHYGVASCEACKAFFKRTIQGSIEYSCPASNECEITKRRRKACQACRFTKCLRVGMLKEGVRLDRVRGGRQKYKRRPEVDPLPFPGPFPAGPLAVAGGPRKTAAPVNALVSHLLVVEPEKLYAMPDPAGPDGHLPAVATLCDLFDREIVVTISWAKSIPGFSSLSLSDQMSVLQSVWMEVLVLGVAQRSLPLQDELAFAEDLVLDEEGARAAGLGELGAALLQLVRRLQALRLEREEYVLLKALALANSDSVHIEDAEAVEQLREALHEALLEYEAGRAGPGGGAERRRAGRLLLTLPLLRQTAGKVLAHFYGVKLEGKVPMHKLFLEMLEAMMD

[4] = biological target: T2, estrogen-related receptor alpha (ERRα) (Homo sapiens, UniProt P11474); assay: ERR reporter (luciferase) antagonist qHTS assay, ERR-HEK293; conditions: for ERR-HEK293 Follow-Up Efficacy: follow-up screen; for ERR-HEK293 Follow-Up Efficacy / ERR-HEK293 Primary Efficacy: relative to XCT790 = −100%; for ERR-HEK293 Primary Efficacy: primary qHTS, DMSO = 0%
T2 sequence (P11474 1-423): T1 sequence (P11474 1-423)

cytochrome c = assay: qRT-PCR mRNA expression of ERR downstream gene cytochrome c; format: cell-based; conditions: 7.5 nM; ERR reporter cells; vs GAPDH, DMSO = 0%
Description: (§2) Total RNA was isolated from treated ERR reporter cells using an RNeasy Mini Kit (Qiagen, Germantown, MD, USA), homogenized using a QIAshredder (Qiagen), and reverse transcribed with a High-Capacity RNA-to-cDNA™ Kit (ThermoFisher Scientific, Inc.) following the manufacturers’ instructions. Expression of ERRα, COX8α, IDH3α, PPARα, COX4I1, and cytochrome c genes was normalized against GAPDH. All primers were purchased from ThermoFisher Scientific, Inc. Real-time PCR assays were performed in 384-well plates on a QuantStudio 5 (Applied Biosystems, Foster City, CA, USA) with TaqMan™ Gene Expression Master Mix (ThermoFisher Scientific, Inc.). Induction values were calculated using the equation: Fold = 2^ΔΔCt, where ΔCt represents the differences in cycle threshold numbers between each of the target genes and GAPDH, and ΔΔCt represents the relative change in these differences between control and treatment groups. Experimental data are presented as a mean of triplicate determinations ± SD. Statistical comparisons were made by t-test, while the statistical significance was set at p values of <0.05 (light blue), <0.01 (medium blue), and <0.001 (dark blue).

COX8α = assay: qRT-PCR mRNA expression of ERR downstream gene COX8α; format: cell-based; conditions: ERR reporter cells, vs GAPDH, DMSO = 0%
Description: as §2

IDH3α = assay: qRT-PCR mRNA expression of ERR downstream gene IDH3α; format: cell-based; conditions: ERR reporter cells, vs GAPDH, DMSO = 0%
Description: as §2

[5] = ERR-HEK293 Follow-Up EC50, follow-up (confirmation) screen, mean ± SD, triplicate
[6] = ERR-HEK293 Primary EC50, primary qHTS, 18 h, 15 concentrations, mean ± SD, triplicate

Structure (SMILES)	ERR-HEK293 Follow-Up Viability EC50 [1]	ERR-HEK293 Primary Viability EC50 [1]	PGC/ERR-HEK293 Follow-Up Viability EC50 [2]	PGC/ERR-HEK293 Primary Viability EC50 [2]	PGC/ERR-HEK293 Follow-Up Efficacy ([3]; follow-up screen)	PGC/ERR-HEK293 Primary Efficacy ([3]; primary qHTS)	ERR-HEK293 Follow-Up Efficacy [4]	ERR-HEK293 Primary Efficacy [4]	EC50 [4, 5]	EC50 [4, 6]	further results
CC[C@@]1(O)C(=O)OCc2c1cc1n(c2=O)Cc2c-1nc1ccccc1c2/C=N/OC(C)(C)C [Gimatecan]	Inactive	Inactive	Inactive	Inactive	−130 ± 20.6%	−115 ± 2.20%	−145 ± 16.0%	−117 ± 14.5%			EC50 ([3]; PGC/ERR-HEK293 Follow-Up EC50): 3.34 µM; EC50 ([3]; PGC/ERR-HEK293 Primary EC50): 2.53 µM; EC50 ([4]; ERR-HEK293 Follow-Up EC50): 0.0442 µM; EC50 ([4]; ERR-HEK293 Primary EC50): 0.0497 µM
Cc1nn(C)c(Oc2ccccc2)c1C=NOCc1ccc(C(=O)OC(C)(C)C)cc1 [Fenpyroximate]					−56.2 ± 10.5%	−36.8% and −36.8 ± 2.17%	−89.6 ± 6.08%	−67.1 ± 9.31%	0.00699 ± 0.00328 µM	0.00452 ± 0.000577 µM	Percent inhibition of mRNA gene expression, Cytochrome C (cytochrome c): 5.28 ± 4.56%; EC50 ([3]; PGC/ERR-HEK293 Follow-Up EC50, follow-up screen, mean ± SD, triplicate): 0.0186 ± 0.021 µM; EC50 ([3]; PGC/ERR-HEK293 Primary EC50, primary qHTS, 18 h, mean ± SD, triplicate): 0.00875 ± 0.000572 µM; EC50 ([3]; potency, ERR/PGC antagonist assay, primary screen): 0.0088 µM; EC50 ([4]; potency, ERR antagonist assay, primary screen): 0.0045 µM
CON=C(C(=O)OC)c1ccccc1CON=C(C)c1cccc(C(F)(F)F)c1 [Trifloxystrobin]											Percent inhibition of mRNA gene expression, COX8α (COX8α; 0.5 µM): 38.4 ± 17.2%; Percent inhibition of mRNA gene expression, IDH3α (IDH3α; 0.5 µM): 10.4 ± 0.21%
O=c1[nH]c(=O)n([C@H]2C[C@H](O)[C@@H](CO)O2)cc1C(F)(F)F [Trifluridine]	Inactive	Inactive	Inactive Inactive	Inactive Inactive			−67.7 ± 6.20%	−51.8 ± 5.77%	1.75 ± 0.314 µM	0.875 ± 0.0593 µM	Percent inhibition of mRNA gene expression, COX8α (COX8α; 1 µM): 43.2 ± 21.8%; PGC/ERR-HEK293 Follow-Up EC50 ([3]; follow-up screen, mean ± SD, triplicate): Inactive Inactive; PGC/ERR-HEK293 Primary EC50 ([3]; primary qHTS, 18 h, mean ± SD, triplicate): Inactive Inactive
Nc1ncn([C@H]2C[C@H](O)[C@@H](CO)O2)c(=O)n1 [Decitabine]											Percent inhibition of mRNA gene expression, IDH3α (IDH3α; 2 µM): 5.79 ± 45.6%
